Measurements: the supplement of paper PMC6045584
± gives the standard deviation of the averaged measurements.

Assays:
FORETINIB = compound: COc1cc2c(Oc3ccc(NC(=O)C4(C(=O)Nc5ccc(F)cc5)CC4)cc3F)ccnc2cc1OCCCN1CCOCC1 [FORETINIB]; test: surviving fraction relative to DMSO-only wells; higher = less growth inhibition; conditions: exposure time: 5 days
Summary of the method: (§1)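 Viability values are CellTiter-Glo luminescence readings, given as surviving fraction against the median of DMSO-only wells. The readings were taken after 10 minutes at room temperature, following five days of continuous exposure to inhibitors at 0.5, 1, 5, 10, 50, 100, 500 and 1000 nM that began 24 hours after log-phase tumour cell lines were seeded at 250–500 cells per well in 384-well plates. Every line was screened three times and kept only if replicate Pearson r >0.7 and median Z' >0.3.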

DASATINIB = compound: Cc1nc(Nc2ncc(C(=O)Nc3c(C)cccc3Cl)s2)cc(N2CCN(CCO)CC2)n1 [DASATINIB]; test: as above; conditions: exposure time: 5 days
Summary of the method: as §1

Test System | surviving fraction (FORETINIB; 0.5 nM) | surviving fraction (FORETINIB; 1 nM) | surviving fraction (FORETINIB; 5 nM) | surviving fraction (FORETINIB; 10 nM) | surviving fraction (FORETINIB; 50 nM) | surviving fraction (FORETINIB; 100 nM) | surviving fraction (FORETINIB; 500 nM) | surviving fraction (FORETINIB; 1000 nM) | surviving fraction (DASATINIB; 0.5 nM) | surviving fraction (DASATINIB; 1 nM) | surviving fraction (DASATINIB; 5 nM) | surviving fraction (DASATINIB; 10 nM) | surviving fraction (DASATINIB; 50 nM) | surviving fraction (DASATINIB; 100 nM) | surviving fraction (DASATINIB; 500 nM) | surviving fraction (DASATINIB; 1000 nM)
MDAMB436 BREAST | 0.976 ± 0.091 | 0.923 ± 0.086 | 0.982 ± 0.043 | 1.05 ± 0.14 | 1.02 ± 0.043 | 0.91 ± 0.2 | 0.856 ± 0.16 | 0.687 ± 0.047 | 0.793 ± 0.052 | 0.861 ± 0.061 | 0.811 ± 0.091 | 0.826 ± 0.094 | 0.824 ± 0.082 | 0.775 ± 0.057 | 0.783 ± 0.061 | 0.757 ± 0.034
MDAMB453 BREAST | 1.1 ± 0.067 | 1.09 ± 0.062 | 1.12 ± 0.058 | 1.13 ± 0.087 | 1.12 ± 0.025 | 1.08 ± 0.04 | 0.952 ± 0.041 | 0.763 ± 0.035 | 1.03 ± 0.046 | 0.995 ± 0.047 | 1.06 ± 0.018 | 1 ± 0.047 | 1.03 ± 0.025 | 1.02 ± 0.052 | 1 ± 0.036 | 1.02 ± 0.091
MDAMB468 BREAST | 1.02 ± 0.03 | 1.05 ± 0.059 | 1.12 ± 0.077 | 1.09 ± 0.03 | 1.15 ± 0.086 | 1.06 ± 0.076 | 0.928 ± 0.082 | 0.356 ± 0.014 | 0.872 ± 0.069 | 0.881 ± 0.038 | 0.909 ± 0.028 | 0.836 ± 0.11 | 0.858 ± 0.099 | 0.718 ± 0.065 | 0.488 ± 0.055 | 0.481 ± 0.055
MFM223 BREAST | 1.17 ± 0.043 | 1.09 ± 0.041 | 1.18 ± 0.062 | 1.22 ± 0.034 | 1.133 ± 0.011 | 0.94 ± 0.023 | 0.417 ± 0.17 | 0.271 ± 0.13 | 0.778 ± 0.17 | 0.785 ± 0.2 | 0.767 ± 0.18 | 0.684 ± 0.05 | 0.834 ± 0.059 | 0.86 ± 0.1 | 0.788 ± 0.091 | 0.68 ± 0.06
MG63 BONE | 1.05 ± 0.012 | 1.07 ± 0.048 | 1.09 ± 0.043 | 1.11 ± 0.05 | 0.901 ± 0.037 | 0.817 ± 0.026 | 0.567 ± 0.015 | 0.322 ± 0.02 | 0.899 ± 0.035 | 0.901 ± 0.013 | 0.785 ± 0.015 | 0.691 ± 0.0046 | 0.469 ± 0.0076 | 0.357 ± 0.012 | 0.204 ± 0.0021 | 0.194 ± 0.0071
MHM BONE | 1.04 ± 0.015 | 1.01 ± 0.012 | 1.05 ± 0.015 | 1.08 ± 0.026 | 1.03 ± 0.017 | 0.973 ± 0.0092 | 0.859 ± 0.026 | 0.8 ± 0.016 | 0.966 ± 0.032 | 0.933 ± 0.058 | 0.846 ± 0.065 | 0.815 ± 0.049 | 0.686 ± 0.011 | 0.635 ± 0.0097 | 0.525 ± 0.0055 | 0.488 ± 0.018
NCIH441 LUNG | 1.11 ± 0.021 | 1.09 ± 0.063 | 1.1 ± 0.038 | 1 ± 0.079 | 0.983 ± 0.026 | 0.932 ± 0.065 | 0.807 ± 0.04 | 0.655 ± 0.066 | 0.994 ± 0.053 | 1.01 ± 0.052 | 0.878 ± 0.085 | 0.921 ± 0.046 | 0.846 ± 0.058 | 0.557 ± 0.056 | 0.462 ± 0.073 | 0.341 ± 0.046
NOS1 BONE | 1.12 ± 0.43 | 1.04 ± 0.052 | 1 ± 0.063 | 0.98 ± 0.099 | 0.79 ± 0.058 | 0.749 ± 0.028 | 0.28 ± 0.039 | 0.114 ± 0.0078 | 0.817 ± 0.083 | 0.726 ± 0.086 | 0.587 ± 0.026 | 0.464 ± 0.021 | 0.296 ± 0.004 | 0.256 ± 0.028 | 0.2 ± 0.026 | 0.193 ± 0.014
NY BONE | 1.05 ± 0.035 | 1.03 ± 0.034 | 1.07 ± 0.033 | 1.016 ± 0.0061 | 0.91 ± 0.019 | 0.93 ± 0.045 | 0.558 ± 0.047 | 0.587 ± 0.031 | 0.9257 ± 0.0085 | 0.881 ± 0.011 | 0.828 ± 0.015 | 0.753 ± 0.018 | 0.471 ± 0.018 | 0.366 ± 0.031 | 0.288 ± 0.012 | 0.263 ± 0.027
OS25HAL BONE | 1.01 ± 0.045 | 1.04 ± 0.032 | 1.08 ± 0.0095 | 1 ± 0.018 | 0.924 ± 0.023 | 0.951 ± 0.031 | 0.375 ± 0.038 | 0.193 ± 0.0084 | 0.88 ± 0.03 | 0.849 ± 0.013 | 0.849 ± 0.035 | 0.747 ± 0.035 | 0.686 ± 0.05 | 0.599 ± 0.074 | 0.45 ± 0.073 | 0.363 ± 0.045
OSHN BONE | 1.08 ± 0.05 | 1.07 ± 0.031 | 1.08 ± 0.018 | 1.05 ± 0.041 | 1.03 ± 0.035 | 1.01 ± 0.039 | 0.735 ± 0.057 | 0.0927 ± 0.013 | 0.889 ± 0.016 | 0.9163 ± 0.0047 | 0.865 ± 0.035 | 0.83 ± 0.014 | 0.915 ± 0.012 | 0.891 ± 0.023 | 0.662 ± 0.13 | 0.46 ± 0.17
PCI30 HEADNECK | 1.07 ± 0.09 | 1.1 ± 0.043 | 1.1 ± 0.019 | 1.11 ± 0.045 | 1.04 ± 0.028 | 1.04 ± 0.072 | 0.806 ± 0.056 | 0.484 ± 0.0076 | 0.916 ± 0.015 | 0.888 ± 0.076 | 0.966 ± 0.05 | 0.98 ± 0.028 | 0.747 ± 0.017 | 0.665 ± 0.036 | 0.528 ± 0.019 | 0.421 ± 0.05
RDES SOFT TISSUE | 1.31 ± 0.058 | 1.25 ± 0.13 | 1.17 ± 0.088 | 1.07 ± 0.065 | 0.989 ± 0.12 | 0.892 ± 0.092 | 0.226 ± 0.013 | 0.106 ± 0.0059 | 0.849 ± 0.23 | 0.762 ± 0.2 | 0.775 ± 0.067 | 0.767 ± 0.14 | 0.981 ± 0.09 | 0.934 ± 0.057 | 0.975 ± 0.059 | 0.9887 ± 0.0031
S68 BREAST | 0.862 ± 0.072 | 0.875 ± 0.33 | 1.35 ± 0.14 | 0.916 ± 0.15 | 1.05 ± 0.082 | 0.78 ± 0.059 | 0.313 ± 0.025 | 0.331 ± 0.077 | 0.625 ± 0.11 | 0.51 ± 0.096 | 0.561 ± 0.11 | 0.419 ± 0.12 | 0.409 ± 0.029 | 0.418 ± 0.041 | 0.277 ± 0.053 | 0.298 ± 0.079
SAOS2 BONE | 1.17 ± 0.045 | 1.12 ± 0.072 | 1.12 ± 0.048 | 1.17 ± 0.069 | 1.15 ± 0.15 | 1.08 ± 0.15 | 0.611 ± 0.082 | 0.162 ± 0.03 | 0.842 ± 0.055 | 0.788 ± 0.024 | 0.62 ± 0.017 | 0.511 ± 0.043 | 0.475 ± 0.047 | 0.384 ± 0.023 | 0.274 ± 0.032 | 0.256 ± 0.015
SCC003 HEADNECK | 1.09 ± 0.068 | 1.14 ± 0.033 | 1.12 ± 0.074 | 1.11 ± 0.038 | 1.04 ± 0.066 | 1.06 ± 0.088 | 0.912 ± 0.046 | 0.485 ± 0.0087 | 0.877 ± 0.036 | 0.843 ± 0.068 | 0.899 ± 0.13 | 0.813 ± 0.076 | 0.827 ± 0.025 | 0.654 ± 0.046 | 0.263 ± 0.014 | 0.149 ± 0.023
SCC36 HEADNECK | 1.06 ± 0.11 | 1.11 ± 0.13 | 1.17 ± 0.02 | 1.13 ± 0.047 | 1.115 ± 0.0078 | 1.08 ± 0.061 | 0.742 ± 0.084 | 0.41 ± 0.035 | 0.788 ± 0.13 | 0.676 ± 0.033 | 0.705 ± 0.078 | 0.678 ± 0.1 | 0.385 ± 0.078 | 0.19 ± 0.032 | 0.12 ± 0.013 | 0.112 ± 0.011
SCC47 HEADNECK | 1.17 ± 0.042 | 1.2 ± 0.09 | 1.18 ± 0.029 | 1.19 ± 0.06 | 1.12 ± 0.014 | 1.02 ± 0.035 | 0.97 ± 0.047 | 0.51 ± 0.024 | 0.961 ± 0.073 | 0.965 ± 0.067 | 0.971 ± 0.065 | 0.9 ± 0.039 | 0.698 ± 0.0083 | 0.38 ± 0.027 | 0.078 ± 0.011 | 0.0587 ± 0.0074
SCC90 HEADNECK | 1.08 ± 0.073 | 1.02 ± 0.045 | 1.1 ± 0.19 | 1.08 ± 0.071 | 1.23 ± 0.061 | 1.12 ± 0.12 | 0.753 ± 0.077 | 0.753 ± 0.25 | 0.823 ± 0.081 | 0.868 ± 0.037 | 0.803 ± 0.071 | 0.85 ± 0.18 | 0.527 ± 0.05 | 0.542 ± 0.072 | 0.433 ± 0.095 | 0.468 ± 0.053
